Results reported in article PMC8587515, “Cytotoxic and Anti-Inflammatory Activities of Dihydroisocoumarin and Xanthone Derivatives from Garcinia picrorhiza” (Molecules, 2021).
Where two headings read alike, the source gives them in different places.

Tests used:
[1] = molecular target: T1, COX-2 (human recombinant PGHS-2) (Homo sapiens, UniProt P35354); experiment: COX-2 enzyme inhibition assay (PGE2 ELISA); format: biochemical; conditions: mean ± SD (n = 4)
T1 construct: purchased Cayman Chemical Co., Ann Arbor, MI, USA
T1 sequence (P35354 18-604): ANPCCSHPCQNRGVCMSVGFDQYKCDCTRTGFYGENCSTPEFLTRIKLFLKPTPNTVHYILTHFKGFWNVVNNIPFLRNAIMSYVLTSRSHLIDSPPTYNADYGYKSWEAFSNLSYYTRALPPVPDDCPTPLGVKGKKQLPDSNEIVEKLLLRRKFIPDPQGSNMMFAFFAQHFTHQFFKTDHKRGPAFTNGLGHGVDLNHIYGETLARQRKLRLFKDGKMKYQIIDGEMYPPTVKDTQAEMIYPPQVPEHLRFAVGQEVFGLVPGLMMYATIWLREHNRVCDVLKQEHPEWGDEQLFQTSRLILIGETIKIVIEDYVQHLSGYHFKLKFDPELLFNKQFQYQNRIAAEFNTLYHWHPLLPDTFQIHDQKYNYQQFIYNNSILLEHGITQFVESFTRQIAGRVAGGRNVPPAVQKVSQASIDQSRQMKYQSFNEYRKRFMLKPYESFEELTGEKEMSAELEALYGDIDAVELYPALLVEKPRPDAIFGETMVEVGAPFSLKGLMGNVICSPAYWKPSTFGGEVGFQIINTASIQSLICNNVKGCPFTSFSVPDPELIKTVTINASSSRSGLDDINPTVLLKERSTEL
Experimental: The anti-inflammatory effects of the isolated compounds were also screened on COX-1 and COX-2 enzymes inhibition at a final concentration of 20 µM.
Purified PGHS-1 from ram seminal vesicles for COX-1 and human recombinant PGHS-2 for COX-2 (Cayman Chemical Co., Ann Arbor, MI, USA) were used for the COX inhibition assays. Experiments were performed in a 96-well plate format, as previously described. Briefly, the incubation mixture contained 180 µL of 0.1 M TRIS/HCl-buffer pH 8.0 (Roth, Karlsruhe, Germany), 50 µM Na2EDTA (only for COX-2, Titriplex III, Merck, Darmstadt, Germany), 18 mM L-epinepherine bitartrate (Fluka, Buchs, Switzerland), 5 µM porcine hematin (MP Biomedicals LLC, Solon, OH, USA), and COX-1 or COX-2 enzymes (0.2 U/well). Ten microliters of tested compounds (dissolved in DMSO with a final concentration of 20 µM) was added and the mixture was pre-incubated for 5 min at room temperature. Thereafter, 10 µL of 5 µM arachidonic acid (Ann Arbor, Michigan USA) was added to the mixture and incubated for 20 min at 37 °C. The reaction was subsequently stopped by adding 10 µL of 10% (v/v) formic acid. The concentration of PGE2 generated in the reaction was quantitatively measured by a competitive PGE2 ELISA kit (Enzo Life Sciences Inc., Farmingdale, NY, USA) according to the manufacturer’s protocol and previous procedure. The absorbance at 405 nm was measured using a Hidex Sense Microplate Reader (Hidex, Turku, Finland). […] The assays were performed in duplicates and repeated in two independent experiments.

[2] = system: HeLa S3 (human cervical carcinoma); parameters: method as in PMID 30153471, PMID 33999337; conditions: MTT; results based on previous work; read-out: IC50 ± SEM, HeLa S3; cited from earlier work
[3] = system: MCF-7 (human breast adenocarcinoma); parameters: method as in PMID 30153471, PMID 33999337; conditions: MTT; results based on previous work; read-out: IC50 ± SEM, MCF-7; cited from earlier work
[4] = system: HT-29 (human colon adenocarcinoma); parameters: method as in PMID 30153471, PMID 33999337; key to IC50 ± SEM, HT-29: IC50 ≤ 10 µM = good cytotoxicity; 10 µM < IC50 ≤ 30 µM = weak cytotoxicity; inactive (IC50 > 30 µM); conditions: MTT; results based on previous work; cited from earlier work
[5] = system: four cancer cells (KB, HeLa S3, MCF-7, and Hep G2); conditions: HeLa S3, MCF-7, Hep G2, earlier studies, read-out: IC50 values against four cancer cells; cited from earlier work
[6] = system: KB (human epidermoid carcinoma); experiment: MTT cytotoxic activity assay, KB; format: cell-based; conditions: 72 h, mean ± SEM of three replicates
Experimental: (§1) The cytotoxic activity of the isolated compounds was evaluated using the MTT viability assay with doxorubicin as the positive control and the results are presented in Table 2.
The MTT colorimetric method was performed to evaluate cytotoxic activity of the isolated compounds against human epidermoid carcinoma (KB; ATCC CCL17), human cervical carcinoma (HeLa S3; ATCC CCL2-2), human colon adenocarcinoma (HT-29; ATCC HTB-38), human breast adenocarcinoma (MCF-7; ATCC HTB-22), and human hepatocellular carcinoma (Hep G2; ATCC HB-8065) cell lines according to the previous method. The cancer cells were cultured in MEM containing 10% fetal bovine serum in the presence of 100 U/mL penicillin and 100 μg/mL streptomycin sulphate (Gibco, Rockville, MD, USA), seeded in a 96-well plate (3000 cells/well), and pre-incubated at 37 °C for 24 h in a 5% CO2 humidified atmosphere. The tested compounds with serial concentrations (0.3–100 μM) were added and incubated for a further 72 h in the same condition. At the end of treatment, 20 µL of MTT solution (5 mg/mL in PBS, Sigma, St. Louis, MI, USA) was added to each well and further incubated for 3 h. After centrifugation at 1400 rpm for 5 min at 4 °C, the supernatant was decanted and DMSO (100 µL/well) was added to allow formazan product solubilization, which was subsequently measured by a microplate reader (Tecan Trading AG, Switzerland) at wavelength 550 nm. Control cells were treated with 0.1% DMSO. Doxorubicin (tested concentrations: 0.01–3.0 μM, Sigma) was used as the positive control. The results are expressed as the mean values of three replicates for three independent experiments. IC50 values were determined by graphical analysis using SigmaPlot 10 (Systat Software Inc., San Jose, CA, USA), obtained by plotting the cell viability percentage versus sample concentration.

[7] = system: Hep G2 (human hepatocellular carcinoma); experiment: MTT cytotoxic activity assay, Hep G2; format: cell-based; conditions: HepG2, 72 h, mean ± SEM of three replicates
Experimental: as §1
(§2) The MTT colorimetric method was performed to evaluate cytotoxic activity of the isolated compounds against human epidermoid carcinoma (KB; ATCC CCL17), human cervical carcinoma (HeLa S3; ATCC CCL2-2), human colon adenocarcinoma (HT-29; ATCC HTB-38), human breast adenocarcinoma (MCF-7; ATCC HTB-22), and human hepatocellular carcinoma (Hep G2; ATCC HB-8065) cell lines according to the previous method. […] After centrifugation at 1400 rpm for 5 min at 4 °C, the supernatant was decanted and DMSO (100 µL/well) was added to allow formazan product solubilization, which was subsequently measured by a microplate reader (Tecan Trading AG, Switzerland) at wavelength 550 nm. […] The results are expressed as the mean values of three replicates for three independent experiments. IC50 values were determined by graphical analysis using SigmaPlot 10 (Systat Software Inc., San Jose, CA, USA), obtained by plotting the cell viability percentage versus sample concentration.

[8] = system: HT-29 (human colon adenocarcinoma); experiment: MTT cytotoxic activity assay, HT-29; format: cell-based; conditions: 72 h, mean ± SEM of three replicates
Experimental: as §1, §2

[9] = system: four cancer cells (KB, HeLa S3, MCF-7, and Hep G2); experiment: MTT cytotoxicity, four cancer cells stated together; format: cell-based; conditions: Homo sapiens; range over KB, HeLa S3, MCF-7, Hep G2; read-out: IC50 values against four cancer cells
Experimental: as §1, §2

Row | Structure (SMILES) | inhibition at 20 µM [1] | IC50 [2] | IC50 [3] | IC50 ± SEM, HT-29 [4] | IC50 [5] | IC50 [6] | IC50 [7] | IC50 [8] | IC50 [9]
1 | C[C@@H]1Oc2cc(O)c3c(=O)c4ccc(O)c(O)c4oc3c2C1(C)C [Compound 7, 2-deprenylrheediaxanthone B] | < 10% | 6 ± 0.5 µM | 6.5 ± 0.2 µM | inactive | < 10 µM |  |  |  | 
2 | C[C@H]1Oc2c(c(O)c3c(=O)c4ccc(O)c(O)c4oc3c2CCC(C)(C)O)C1(C)C [Compound 4, gerontoxanthone C hydrate] | < 10% |  |  |  |  | 7.5 ± 0.8 µM | 6.3 ± 0.6 µM | 20.3 ± 0.6 µM | 5.6 to 7.5 µM
